For the experiment, the system named is TNF-α production from mouse peritoneal macrophage. Briefly: Inhibition of TNF-α production from mouse peritoneal macrophage (LPS stimulation, ELISA). The experiment is classed as cell-based. To be noted: ICR mouse peritoneal cells, GM-CSF and IFN-γ 10 ng/ml, LPS 5 ng/ml, cultured 16 hrs, 50% suppression of TNF-α amount, read-out: IC50 (μM) Mo-TNF. As to the method:
Test for TNF-α Production or Inhibition of TNF-α Production from Mouse Peritoneal Macrophage Peritoneal cells were recovered from the peritoneal cavity of ICR mice (male, 5-7 weeks of age, Charles River) and sown in a 96-well half plate (Costar 3696) at a density of 1×10^5 cells per well. As the medium, RPMI-1640 containing 10% fetal calf serum was used and, using this medium, each reagent was prepared. Mouse GM-CSF (Peprotech) and mouse IFN-γ (Peprotech) were respectively added at a final concentration of 10 ng/ml, lipopolysaccharide (E. coli 0111: B4 LPS, DIFCO, lot 99078) was added at a final concentration of 5 ng/ml, and the compound of the present invention was added at 8 steps of dilution series by 3-fold dilution from the final concentration (300 μM), and cultured for 16 hrs. The concentration of TNF-α secreted into the culture supernatant was determined using a mouse TNF-α ELISA quantitative determination kit (Pharmingen, #2673KI) and the absorbance at 450 nm was measured using a V-max kinetic microplate reader (Molecular Devices). The concentration of the compound necessary for 50% suppression of TNF-α amount produced by lipopolysaccharide stimulation was taken as IC50 (μM).
Background: In an ELISA, binding on a coated surface is turned into a signal by an enzyme label.

Usually IC50 stands for the concentration that inhibits the measured activity by half. As to `CCC/C=C1/C(=O)NC(=O)c2c1nn(-c1ccccc1)c2N` [Example 77], the IC50 was found to be 14.7 µM.

For the molecule `CC(C)c1ccc(/C=C2/C(=O)NC(=O)c3c2nn(-c2ccccc2)c3N)cc1` [Example 52], the half-maximal inhibitory concentration (IC50) was 8.6 µM.

For the molecule `Nc1c2c(nn1-c1ccccc1)/C(=C\c1c(F)c(F)c(F)c(F)c1F)C(=O)NC2=O` [Example 133], the concentration for half-maximal inhibition (IC50) was 0.3 µM.

With `CCCCCCn1nc2c(c1N)C(=O)NC(=O)C2` [Example 164], the IC50 amounted to 2.1 µM.

For the molecule `COC(=O)CCn1nc2c(c1N)C(=O)NC(=O)C2` [Example 36], the concentration for half-maximal inhibition (IC50) turned out to be 80.5 µM.

Consider `Nc1c2c(nn1C1CCCC1)CC(=O)NC2=O` [Example 161], for which the IC50 came out at 10.9 µM.

`O=C1Cc2nn(-c3ccccc3)c(Br)c2C(=O)N1` [Example 26]: the IC50 came to 15.1 µM.

Turning to `Nc1c2c(nn1Cc1ccccc1I)CC(=O)NC2=O` [Example 180], the IC50 turned out to be 8.7 µM.

Consider `O=C1Cc2nn(-c3ccccc3)c(-c3ccncc3)c2C(=O)N1` [Example 190], for which the half-maximal inhibitory concentration (IC50) came to 77.3 µM.

With `CCOC(=O)/C(C)=C1\C(=O)NC(=O)c2c1nn(-c1ccccc1)c2N` [Example 136], the IC50 was determined as 4.3 µM.

Take `CO/N=C1/C(=O)NC(=O)c2c1nn(-c1ccccc1)c2N` [Example 143]: the IC50 was found to be 26.2 µM.

Turning to `Nc1c2c(nn1Cc1cccc3ccccc13)CC(=O)NC2=O` [Example 172], the IC50 is 83.1 µM.

Turning to `Nc1c2c(nn1-c1cccc(Cl)c1)CC(=O)NC2=O` [Example 11], the IC50 was determined as 15.2 µM.

In the case of `Nc1c2c(nn1-c1ccccc1)/C(=C\c1cccc(O)c1)C(=O)NC2=O` [Example 57], the IC50 was found to be 7.8 µM.

For the molecule `Cn1ccnc1/C=C1/C(=O)NC(=O)c2c1nn(-c1ccccc1)c2N` [Example 64], the IC50 was 3.5 µM.

Consider `Nc1c2c(nn1-c1ccccc1)/C(=C\c1ccc(C(=O)O)cc1)C(=O)NC2=O` [Example 60], for which the half-maximal inhibitory concentration (IC50) came to 3.7 µM.

Consider `Cc1cccc(-n2nc3c(c2N)C(=O)NC(=O)C3)c1` [Example 14], for which the IC50 was found to be 27.3 µM.

For the molecule `O=C1Cc2nn(-c3ccccc3)c(NC3CCCCC3)c2C(=O)N1` [Example 187], the half-inhibitory concentration (IC50) worked out at 16.6 µM.

Regarding `O=C1Cc2nn(-c3ccccc3)c(N3CCCC3)c2C(=O)N1` [Example 186], the IC50 turned out to be 14.7 µM.

Regarding `CCC(CC)Cn1nc2c(c1N)C(=O)NC(=O)C2` [Example 167], the 50% inhibitory concentration (IC50) was 26.8 µM.

Consider `COc1ccccc1/C=C1/C(=O)NC(=O)c2c1nn(-c1ccccc1)c2N` [Example 71], for which the IC50 came out at 4.5 µM.

For the molecule `Nc1c2c(nn1-c1ccccn1)CC(=O)NC2=O` [Example 13], the IC50 stood at 5 µM.

Take `Cc1ccc(-n2nc3c(c2N)C(=O)NC(=O)C3)cc1` [Example 5]: the IC50 is 23.9 µM.

`O=C1Cc2nn(-c3ccccc3)c(Sc3ccccc3)c2C(=O)N1` [Example 33]: the IC50 turned out to be 79.1 µM.

On to `CSCC/C=C1/C(=O)NC(=O)c2c1nn(-c1ccccc1)c2N` [Example 78], for which the 50% inhibitory concentration (IC50) came to 10.6 µM.

For `CCCC(CCC)n1nc2c(c1N)C(=O)NC(=O)C2` [Example 162], the half-inhibitory concentration (IC50) came to 13 µM.

With `Nc1c2c(nn1-c1ccccc1)/C(=C\c1ccc(O)cc1)C(=O)NC2=O` [Example 46], the half-maximal inhibitory concentration (IC50) came to 23.7 µM.

`Nc1c2c(nn1-c1ccccc1O)CC(=O)NC2=O` [Example 153]: the IC50 came out at 9 µM.

Turning to `Nc1c2c(nn1-c1ccccc1)/C(=C\c1cccs1)C(=O)NC2=O` [Example 82], the concentration for half-maximal inhibition (IC50) turned out to be 78.5 µM.

Take `Nc1c2c(nn1CC1CCCCC1)CC(=O)NC2=O` [Example 160]: the half-maximal inhibitory concentration (IC50) turned out to be 60.3 µM.

As to `Nc1c2c(nn1-c1ccc(Cl)cc1)CC(=O)NC2=O` [Example 12], the half-inhibitory concentration (IC50) came out at 11.8 µM.

For the molecule `Nc1c2c(nn1-c1ccc(F)cc1)CC(=O)NC2=O` [Example 124], the half-inhibitory concentration (IC50) is 9.4 µM.

As to `Nc1c2c(nn1-c1ccccc1)/C(=C\c1ccco1)C(=O)NC2=O` [Example 83], the concentration for half-maximal inhibition (IC50) was found to be 93.2 µM.

For `Nc1c2c(nn1-c1ccccc1)/C(=C\c1ccc(O)c(O)c1)C(=O)NC2=O` [Example 56], the IC50 is 3.3 µM.

As for `Nc1c2c(nn1Cc1ccccc1O)CC(=O)NC2=O` [Example 170], the IC50 was 13.2 µM.

Turning to `Nc1c2c(nn1-c1ccc([N+](=O)[O-])cc1)CC(=O)NC2=O` [Example 10], the IC50 stood at 22.9 µM.

Turning to `Nc1c2c(nn1-c1ccccc1)/C(=C\C1=COc3ccc(O)cc3C1)C(=O)NC2=O` [Example 66], the concentration for half-maximal inhibition (IC50) was 3.5 µM.

Take `CCOC(=O)Nc1cccc(-n2nc3c(c2N)C(=O)NC(=O)C3)c1` [Example 129]: the IC50 was 8.4 µM.

For the molecule `Nc1c2c(nn1-c1ccccc1)C1(CC1)C(=O)NC2=O` [Example 98], the 50% inhibitory concentration (IC50) was determined as 18.4 µM.

For `Nc1ccc(/C=C2/C(=O)NC(=O)c3c2nn(-c2ccccc2)c3N)cc1` [Example 55], the half-inhibitory concentration (IC50) came out at 6.1 µM.

`CC(=O)Nc1ccc(/C=C2/C(=O)NC(=O)c3c2nn(-c2ccccc2)c3N)cc1` [Example 53]: the 50% inhibitory concentration (IC50) was 7.9 µM.

In the case of `Nc1c2c(nn1-c1c(Cl)cccc1Cl)CC(=O)NC2=O` [Example 19], the IC50 was found to be 32.8 µM.

Consider `Nc1c2c(nn1-c1ccccc1)C(=C1CCOCC1)C(=O)NC2=O` [Example 92], for which the half-maximal inhibitory concentration (IC50) came out at 31.9 µM.

For `Nc1c2c(nn1-c1ccccc1)CC(=O)NC2=O` [Example 21], the 50% inhibitory concentration (IC50) came out at 3.5 µM.

As to `CC(C)=C1C(=O)NC(=O)c2c1nn(-c1ccccc1)c2N` [Example 135], the half-maximal inhibitory concentration (IC50) is 8.3 µM.

With `CC/C(C)=C1/C(=O)NC(=O)c2c1nn(-c1ccccc1)c2N` [Example 88], the IC50 was determined as 9.9 µM.

For `O=C1Cc2nn(-c3ccccc3)c(I)c2C(=O)N1` [Example 27], the half-inhibitory concentration (IC50) was found to be 28.3 µM.

In the case of `CC1(C)CCC(n2nc3c(c2N)C(=O)NC(=O)C3)CC1` [Example 163], the 50% inhibitory concentration (IC50) is 2.6 µM.

Consider `Cn1nc2c(c1NCc1cccc(O)c1)C(=O)NC(=O)C2` [Example 112], for which the IC50 is 82.2 µM.

Regarding `Nc1c2c(nn1C1CCOCC1)CC(=O)NC2=O` [Example 159], the half-maximal inhibitory concentration (IC50) is 26.9 µM.

As for `Cc1ccccc1/C=C1/C(=O)NC(=O)c2c1nn(-c1ccccc1)c2N` [Example 49], the IC50 is 32.7 µM.

Turning to `Nc1c2c(nn1Cc1cccnc1)CC(=O)NC2=O` [Example 176], the IC50 turned out to be 3.5 µM.

On to `CCC(CC)n1nc2c(c1N)C(=O)NC(=O)C2` [Example 158], for which the IC50 is 5.8 µM.

Take `Nc1c2c(nn1-c1cccc(F)c1)CC(=O)NC2=O` [Example 9]: the IC50 was 18 µM.

Turning to `Nc1c2c(nn1-c1c(F)c(F)c(F)c(F)c1F)CC(=O)NC2=O` [Example 125], the IC50 was determined as 10.8 µM.

As for `CCOC(=O)C(C)C1C(=O)NC(=O)c2c1nn(-c1ccccc1)c2N` (centres unmarked) [Example 149], the IC50 was 99.7 µM.

For the molecule `COc1cccc(-n2nc3c(c2N)C(=O)NC(=O)C3)c1` [Example 16], the 50% inhibitory concentration (IC50) was determined as 20.1 µM.

For the molecule `O=C1Cc2nn(-c3ccccc3)cc2C(=O)N1` [Example 25], the 50% inhibitory concentration (IC50) came out at 28 µM.

Take `COc1cc(OC)c(/C=C2/C(=O)NC(=O)c3c2nn(-c2ccccc2)c3N)c(OC)c1` [Example 74]: the IC50 came to 4.4 µM.

`C/C=C1/C(=O)NC(=O)c2c1nn(-c1ccccc1)c2N` [Example 86]: the IC50 was found to be 9.7 µM.

Regarding `COc1cccc(/C=C2/C(=O)NC(=O)c3c2nn(-c2ccccc2)c3N)c1` [Example 72], the IC50 came to 80.5 µM.

Turning to `COc1cccc(OC)c1/C=C1/C(=O)NC(=O)c2c1nn(-c1ccccc1)c2N` [Example 73], the IC50 amounted to 5.6 µM.

The values are drawn from patent US7902179B2, “Heterocyclic compounds” (Ajinomoto Co., Inc., priority 2001, dated 2011).
